Source: patent EP0301034B1, “USE OF 1-(3'TRIFLUOROMETHYL 4'-NITROPHENYL) 4,4-DIMETHYL IMIDAZOLINE 2, 5-DIONE IN THE MANUFACTURE OF A MEDICAMENT FOR THE TREATMENT OF HORMONE-DEPENDENT CANCERS OTHER THAN CANCERS OF THE PROSTATE, THE SKIN AND THE COLON” (ROUSSEL-UCLAF, priority 1986, dated 1988)

How the values were obtained:
[1] = tested on: cellules tumorales mammaires MCF-7; assay: Antiproliferative activity on growth of MCF-7 mammary tumour cells (DNA assay with DABA fluorimetry); type: cell-based; conditions: 10⁻⁵M; end of experiment J6; SVF medium; inhibition of DNA increase
Protocol: (§1) L'activité de la 1-(3'-trifluorométhyl 4'-nitrophényl) 4,4-diméthyl imidazoline 2,5-dione a été déterminée par la mesure de son activité antiproliférative sur la croissance de cellules tumorales mammaires MCF-7 et T 47-D.
(§2) Les lignées MCF-7 et T 47-D sont maintenues en culture en milieu SVF (1) à 37 °C en atmosphère humide contenant 5% CO₂. Les cellules à subconfluence sont récoltées par trypsination (trypsine 0,05%, EDTA 0,02%) puis rincées par centrifugation douce. Un échantillon des cellules en suspension est compté sur cellule de Malassez.
(§3) Les cellules resuspendues dans le milieu SVF sont ensemencées à raison de 30.000 cellules par puits dans des plaques multipuits (24 puits de 2,5 cm2). […]
(§4) L'ADN est dosé par une méthode fluorimétrique utilisant le DABA (Acide 3,5 diaminobenzoïque) (2) 150 microlitres de DABA sont ajoutés dans chaque puits; les plaques sont alors incubées 45 mn à 56°C, puis 1,5 ml d'HCl 1N sont ajoutés. La fluorescence est mesurée à l'aide de fluorimètre (longueur excitatrice : 400 nm, longueur d'onde d'émission : 500 nm). La quantité d'ADN par puits est évaluée par rapport à une gamme étalon obtenue en traitant dans les mêmes conditions un standard d'ADN du thymus de veau.

[2] = tested on: cellules tumorales mammaires T 47-D; assay: Antiproliferative activity on growth of T 47-D mammary tumour cells (DNA assay with DABA fluorimetry); type: cell-based; conditions: 10⁻⁵M; end of experiment J12; SVF medium; inhibition of DNA increase
Protocol: as §1, §2, §3, §4

## CC1(C)NC(=O)N(c2ccc([N+](=O)[O-])c(C(F)(F)F)c2)C1=O [1-(3'trifluorométhyl 4'-nitrophényl) 4,4-diméthyl imidazoline 2,5-dione]
[1]
  inhibe la croissance des cellules MCF-7: 30%
[2]
  inhibe la croissance des cellules T 47-D: 30%
